Data as given in ChEMBL document CHEMBL5537162, “Development of Antibacterial Peptides with Membrane Disruption and Folate Pathway Inhibitory Activities against Methicillin-Resistant Staphylococcus aureus” (J Med Chem, 2024).
Activity calls are given as the source filed them. No cut-off for these calls is given here.

Legend:
[1] = Hemolytic activity in mouse RBC assessed as hemolysis at 320 uM incubated for 1 hrs by spectrophotometric analysis relative to control; format: toxicity, cell-based, Erythrocyte; details: mouse red blood cells (erythrocytes), read-out: %max
[2] = Selectivity index, ratio of IC50 for antiproliferative activity against HEK293T cells assessed as reduction in cell viability to MIC for antibacterial activity against methicillin-resistant Staphylococcus aureus assessed as bacterial growth inhibition; format: toxicity, cell-based; details: human, read-out: Selectivity Index
[3] = system: Staphylococcus aureus; test: Antibacterial activity against methicillin-resistant Staphylococcus aureus 18908 assessed as bacterial growth inhibition incubated for 24 hrs by CLSI based micro-broth dilution assay; format: functional
[4] = system: Staphylococcus aureus; test: Antibacterial activity against methicillin-resistant Staphylococcus aureus 18466 assessed as bacterial growth inhibition incubated for 24 hrs by CLSI based micro-broth dilution assay; format: functional
[5] = system: Staphylococcus aureus; test: Antibacterial activity against methicillin-resistant Staphylococcus aureus 18475 assessed as bacterial growth inhibition incubated for 24 hrs by CLSI based micro-broth dilution assay; format: functional
[6] = system: Staphylococcus aureus; test: Antibacterial activity against methicillin-resistant Staphylococcus aureus 18567 assessed as bacterial growth inhibition incubated for 24 hrs by CLSI based micro-broth dilution assay; format: functional
[7] = system: Staphylococcus aureus; test: Antibacterial activity against methicillin-resistant Staphylococcus aureus 18858 assessed as bacterial growth inhibition incubated for 24 hrs by CLSI based micro-broth dilution assay; format: functional
[8] = system: Staphylococcus aureus; test: Antibacterial activity against methicillin-resistant Staphylococcus aureus 18878 assessed as bacterial growth inhibition incubated for 24 hrs by CLSI based micro-broth dilution assay; format: functional
[9] = system: Staphylococcus aureus; test: Antibacterial activity against methicillin-resistant Staphylococcus aureus 19498 assessed as bacterial growth inhibition incubated for 24 hrs by CLSI based micro-broth dilution assay; format: functional
[10] = system: Staphylococcus aureus; test: Antibacterial activity against methicillin-resistant Staphylococcus aureus 19167 assessed as bacterial growth inhibition incubated for 24 hrs by CLSI based micro-broth dilution assay; format: functional
[11] = system: Staphylococcus aureus; test: Antibacterial activity against methicillin-resistant Staphylococcus aureus 19423 assessed as bacterial growth inhibition incubated for 24 hrs by CLSI based micro-broth dilution assay; format: functional
[12] = system: Staphylococcus aureus; test: Antibacterial activity against Staphylococcus aureus 29213 assessed as bacterial growth inhibition incubated for 24 hrs by CLSI based micro-broth dilution assay; format: functional
[13] = system: Staphylococcus aureus; test: Antibacterial activity against Staphylococcus aureus 6538 assessed as bacterial growth inhibition incubated for 24 hrs by CLSI based micro-broth dilution assay; format: functional
[14] = system: Staphylococcus aureus; test: Antibacterial activity against Staphylococcus aureus 8325.4 assessed as bacterial growth inhibition incubated for 24 hrs by CLSI based micro-broth dilution assay; format: functional
[15] = system: Porphyromonas gingivalis; test: Antibacterial activity against Porphyromonas gingivalis assessed as bacterial growth inhibition incubated for 24 hrs by CLSI based micro-broth dilution assay; format: functional
[16] = system: Escherichia coli; test: Antibacterial activity against Escherichia coli assessed as bacterial growth inhibition incubated for 24 hrs by CLSI based micro-broth dilution assay; format: functional
[17] = system: Pseudomonas aeruginosa; test: Antibacterial activity against Pseudomonas aeruginosa assessed as bacterial growth inhibition incubated for 24 hrs by CLSI based micro-broth dilution assay; format: functional
[18] = system: Candida albicans; test: Antifungal activity against Candida albicans assessed as inhibition of fungal growth; format: functional
[19] = system: Staphylococcus aureus; test: Drug resistance, ratio of MIC for methicillin-resistant Staphylococcus aureus after 1 week exposure to MIC for methicillin-resistant Staphylococcus aureus during first exposure; format: functional; details: time 1 weeks
[20] = Stability in methicillin-resistant Staphylococcus aureus supernatants measured for 12 hrs by RP-HPLC analysis; format: physicochemical; details: read-out: Stability
[21] = Stability in methicillin-resistant Staphylococcus aureus supernatants measured for 24 hrs by RP-HPLC analysis; format: physicochemical
[22] = system: Staphylococcus aureus; test: Antibacterial activity against methicillin-resistant Staphylococcus aureus assessed as fold reduction in viable bacteria at 1 to 8 times MIC measured at 3 hr by time-kill assay; format: functional
[23] = Stability in mouse blood plasma measured for 24 hrs by RP-HPLC analysis; format: ADME, cell-free
[24] = system: Staphylococcus aureus; test: Antibacterial activity against methicillin-resistant Staphylococcus aureus assessed as reduction in viable bacteria at 1 to 8 times MIC measured at 1 hr by time-kill assay; format: functional, organism-based
[25] = system: Cell membrane; test: Disruption of membrane integrity in methicillin-resistant Staphylococcus aureus assessed as increase in fluorescence intensity measured for 120 mins by confocal microscopic analysis; format: cell membranes
[26] = system: Cell membrane; test: Disruption of membrane integrity in methicillin-resistant Staphylococcus aureus measured for 6 hrs by scanning electron microscopic analysis; format: cell membranes
[27] = target: T1, Monofunctional C1-tetrahydrofolate synthase, mitochondrial (Homo sapiens) (UniProt Q6UB35); test: Inhibition of FTHFS (unknown origin) expressed in Escherichia coli BL21 (DE3) incubated for 10 mins by UV-spectrophotometer analysis
T1 sequence (whole entry): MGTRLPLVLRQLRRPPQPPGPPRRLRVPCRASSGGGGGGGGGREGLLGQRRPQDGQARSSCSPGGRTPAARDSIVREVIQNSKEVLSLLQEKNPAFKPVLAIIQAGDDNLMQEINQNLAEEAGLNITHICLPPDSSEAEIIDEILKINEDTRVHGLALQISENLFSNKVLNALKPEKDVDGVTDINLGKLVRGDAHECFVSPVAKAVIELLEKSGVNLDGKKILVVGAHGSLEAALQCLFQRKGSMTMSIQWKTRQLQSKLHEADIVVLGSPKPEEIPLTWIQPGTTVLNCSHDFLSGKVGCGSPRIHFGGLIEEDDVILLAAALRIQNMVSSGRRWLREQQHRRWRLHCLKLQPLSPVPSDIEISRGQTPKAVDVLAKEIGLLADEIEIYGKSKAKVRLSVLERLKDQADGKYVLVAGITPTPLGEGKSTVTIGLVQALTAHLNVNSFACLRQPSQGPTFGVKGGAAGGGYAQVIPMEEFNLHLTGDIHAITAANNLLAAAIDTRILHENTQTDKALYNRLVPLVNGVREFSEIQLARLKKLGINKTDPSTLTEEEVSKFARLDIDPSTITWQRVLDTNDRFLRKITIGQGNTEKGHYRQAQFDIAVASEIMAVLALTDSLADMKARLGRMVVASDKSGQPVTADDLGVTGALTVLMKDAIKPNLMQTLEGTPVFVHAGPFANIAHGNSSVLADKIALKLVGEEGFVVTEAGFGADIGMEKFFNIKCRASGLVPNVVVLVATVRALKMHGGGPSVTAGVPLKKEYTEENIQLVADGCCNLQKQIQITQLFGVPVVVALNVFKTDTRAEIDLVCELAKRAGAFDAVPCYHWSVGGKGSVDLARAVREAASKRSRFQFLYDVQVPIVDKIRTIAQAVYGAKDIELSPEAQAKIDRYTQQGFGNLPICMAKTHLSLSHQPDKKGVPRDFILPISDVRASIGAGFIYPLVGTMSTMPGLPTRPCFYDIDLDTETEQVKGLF

[28] = system: Staphylococcus aureus; test: Antibacterial activity against Methicillin-resistant Staphylococcus aureus infected in ICR mouse skin infection model assessed as reduction in skin abscess volume at 40 mg/kg, sc measured upto 10 days; format: functional, organism-based; details: time <= 10.0 day
[29] = system: Staphylococcus aureus; test: Antibacterial activity against Methicillin-resistant Staphylococcus aureus infected in ICR mouse skin infection model assessed as reduction in bacterial content at 40 mg/kg, sc measured upto 10 days; format: functional, organism-based; details: time <= 10.0 day
[30] = system: Staphylococcus aureus; test: Antibacterial activity against Methicillin-resistant Staphylococcus aureus infected in ICR mouse skin infection model assessed as log reduction in bacterial count at 40 mg/kg, sc measured upto 10 days; format: functional; details: time <= 10 day

Row | Substance | hemolysis at 1 h, 320 µM [1] | selectivity ratio [2] | MIC [3] | MIC [4] | MIC [5] | MIC [6] | MIC [7] | MIC [8] | MIC [9] | MIC [10] | MIC [11] | MIC [12] | MIC [13] | MIC [14] | MIC [15] | MIC [16] | MIC [17] | MIC [18] | Ratio [19] | remaining at 12 h [20] | other results
1 | H-LARVARRVIRFIRRAW-NH2 | 8.58% | 107 | 3 µM | 6 µM | 6 µM | 3 µM | 3 µM | 6 µM | 6 µM | 6 µM | 6 µM | 3 µM | 3 µM | 3 µM | 12 µM | > 48 µM | > 48 µM | 3 µM | 4 | 50% | Stability [21]: Stable; fold change (FC) [22]: ~300; Stability [23]: Unstable; Activity [24]: Active; Activity [25]: Active; Activity [26]: Active; inhibition [27]: Active; Activity [28]: Active; Activity [29]: Active; log(activity) [30]: 5.9
2 | H-RRRLARRLIFFIRRAW-NH2 | 8.97% | 107 | 3 µM | 6 µM | 6 µM | 6 µM | 3 µM | 6 µM | 3 µM | 6 µM | 6 µM | 3 µM | 3 µM | 3 µM | 12 µM | > 48 µM | > 48 µM | 3 µM | 8 | 25% | Stability [21]: Stable; fold change (FC) [22]: ~300; Stability [23]: Unstable; Activity [24]: Active; Activity [25]: Active; Activity [26]: Active; inhibition [27]: Active; Activity [28]: Active; Activity [29]: Active; log(activity) [30]: 5.8
